Common to all, as to type: cell-based
The test system of one test is A549 cells. The test is described as follows: CellTiter-Glo cell viability assay, A549 cells. The settings on record: Homo sapiens. An excerpt:
(§1) The following cell lines were obtained from ATCC and cultured according to the ATCC recommendations: DMS273—small cell lung cancer cell line; H1975—non-small cell lung cancer cell line harboring L858R and T790M mutations in EGFR TK; A549—a non-small cell lung cancer cell line with wild type EGFR; LNCap—prostate cancer cell line; SW620—colon cancer cell line; MiaPaCa2—pancreatic cancer cell line; PANC1—pancreatic cancer cell line; OVCAR3—ovarian cancer cell line; SK-OV-3—ovarian cancer cell line.
(§2) For viability analysis, cells were seeded into 96-well plates at 2×10^3-6×10^3 cells/well; the plated number of cells depended on cell size and rate of proliferation aiming for approximately 50% confluency. After seeding, the cells were allowed to attach for 24 hours incubated at 37° C. in a humidified 5% CO2 atmosphere.
(§3) The treatments were performed using at least 6 different concentrations of a compound in 1:3 serial dilutions in DMSO such that the DMSO concentration in the cell medium was <1%. The cell cultures were incubated for an additional 96 hours in 5% CO2 incubator at 37° C. Treatments were performed in triplicate. Results were analyzed by CellTiter-Glo™ Luminescent Cell Viability Assay (Promega, cat. #G7571) according to the manufacturer's instructions using Spectra MAX Gemini Spectrophotometer (Molecular Devices).

Another test has as its system H1975 cells. The test is described as follows: CellTiter-Glo cell viability assay, H1975 cells. The settings on record: Homo sapiens, NCI-H1975, H1975 cells.
Excerpt: as §1, §2, §3
On the technique in general: Cellular ATP, detected with luciferase, serves as a proxy for viable cell number.

For test [1], the system named is DMS273 cells. The test is described as follows: CellTiter-Glo cell viability assay, DMS273 cells. To be noted: Homo sapiens, DMS-273, DMS273 cells.
Excerpt: as §1, §2, §3

The test system of the next test is OVCAR3 cells. The test is described as follows: CellTiter-Glo cell viability assay, OVCAR3 cells. To be noted: Homo sapiens, OVCAR-3, OVCAR3 cells.
Excerpt: as §1, §2, §3

Test [2] deals with DMS273 cells. The test is described as follows: FACS cell cycle distribution (Acridine Orange), DMS273 cells. The settings on record: mitotic inhibitor alone, FBS+ media, 24 hours (2.7 nM paclitaxel; 1.1 nM vincristine; 8.1 nM vinorelbine).
Excerpt: as §1
(§4) Cell cultures were seeded into 6-well plates at 3×10^5-6×10^5 cells/well; the plated number of cells depended on cell size and rate of proliferation, aiming for approximately 50% confluency. After seeding, the cells were allowed to attach for 24 hours while incubated at 37° C. in a humidified 5% CO2 atmosphere, and then treated with compounds for desired amount of time (usually 24 hours) incubating under same conditions. Then the cells were harvested by trypsinization, pooled with the floating cells, washed in PBS, and fixed in 70% ice-cold ethanol overnight. For Acridine Orange (AO) staining, fixed cells were washed once with ice-cold PBS, re-suspended in 100 μL PBS, followed by addition of 200 μL of permeabilizing solution and 600 μL AO staining solution. The measurements were performed with Guava easyCyte HT flow cytometer (EMD Millipore) using the blue laser for excitation at 488 nm, monitoring emission of the AO-DNA complex at 526 nm and AO-RNA complex at 650 nm. The complete protocol and composition of buffers are described in the literature (Darzynkiewicz Z, Juan G, and Srour E F (2004) Differential Staining of DNA and RNA (2004). Current Protocols in Cytometry, Chapter 7:Unit 7.3).

For a further test, the system named is SK-OV-3 cells. The test is described as follows: CellTiter-Glo cell viability assay, SK-OV-3 cells. To be noted: Homo sapiens, SK-OV-3, SK-OV-3 cells.
Excerpt: as §1, §2, §3

For the next test, the system named is HCC827 cells. The experiment in a line: CellTiter-Glo cell viability assay, HCC827 cells. To be noted: Homo sapiens. As for the experimental part:
as §2, §3

The next test deals with LNCap cells. The experiment in a line: CellTiter-Glo cell viability assay, LNCap cells. To be noted: Homo sapiens.
Excerpt: as §1, §2, §3

Test [3] relates to SW620 cells. The test is described as follows: CellTiter-Glo cell viability assay, SW620 cells. To be noted: Homo sapiens, SW-620, SW620 cells.
Excerpt: as §1, §2, §3

In test [4] the test system is SW620 cells. The test is described as follows: FACS cell cycle distribution (Acridine Orange), SW620 cells. The settings on record: paclitaxel alone (2 nM), FBS+ media, 24 hours.
Excerpt: as §1, §4

The next test deals with PANC1 cells. The experiment in a line: CellTiter-Glo cell viability assay, PANC1 cells. To be noted: Homo sapiens, PANC-1, PANC1 cells.
Excerpt: as §1, §2, §3

This is an account of results in US10314843B2, “Combinations for the treatment of neoplasms using quiescent cell targeting and inhibitors of mitosis” (Felicitex Therapeutics, Inc., priority 2016, dated 2019).

Molecules are shown by their SMILES. pEC50: −log10 of the molar value.

In the case of `CCC1=C[C@@H]2CN(C1)Cc1c([nH]c3ccccc13)[C@@](C(=O)OC)(c1cc3c(cc1OC)N(C)[C@H]1[C@@](O)(C(=O)OC)[C@H](OC(C)=O)[C@]4(CC)C=CCN5CC[C@]31[C@@H]54)C2` [vinorelbine], the pEC50 (usually −log10 of the EC50, conventionally taken in molar units) was 7.57 in the test with A549 cells (Compound I-7 not present); 7.80 in the test on A549 cells (Compound I-7 present at 2 μM); 8.22 in the test on A549 cells (Compound I-7 present at 4 μM); 8.02 with H1975 cells (Compound I-5 not present); 8.28 with H1975 cells (Compound I-5 present at 2 μM); 8.68 with H1975 cells (Compound I-5 present at 4 μM). Further, the pEC50 in the test on DMS273 cells [1] (Compound I-5 not present) was 8.96; in the test with DMS273 cells [1] (Compound I-5 present at 2 μM) it was 9.40; in the test on DMS273 cells [1] (Compound I-5 present at 4 μM), greater than 10.40; in the test with OVCAR3 cells (Compound I-7 not present) it was 8.62; in the test with OVCAR3 cells (Compound I-7 present at 1 μM), 8.62; in the test with OVCAR3 cells (Compound I-7 present at 3 μM), 10.00. For the same compound, the pEC50 with SK-OV-3 cells (Compound I-7 not present) was 7.82; in the test with SK-OV-3 cells (Compound I-7 present at 2 μM), 8.00; with SK-OV-3 cells (Compound I-7 present at 4 μM), 8.33. The “pharmacological quiescence (fraction of cells in G0 phase)” value in the test with DMS273 cells [2] was “does not result in pharmacological quiescence”.

Regarding `CC(=O)O[C@H]1C(=O)[C@@]2(C)[C@H]([C@H](OC(=O)c3ccccc3)[C@]3(O)C[C@H](OC(=O)[C@H](O)[C@@H](NC(=O)c4ccccc4)c4ccccc4)C(C)=C1C3(C)C)[C@]1(OC(C)=O)CO[C@@H]1C[C@@H]2O` [paclitaxel], the pEC50 with A549 cells (Compound I-7 not present) is 8.32; in the test with A549 cells (Compound I-7 present at 3 μM) it was 8.60; in the test with A549 cells (Compound I-7 present at 6 μM), 9.15; in the test on HCC827 cells (Compound I-7 not present), 8.38; in the test on HCC827 cells (Compound I-7 present at 3 μM) it was 8.60; with HCC827 cells (Compound I-7 present at 6 μM), 9.22. Further, the pEC50 with LNCap cells (Compound I-5 not present) was 8.49; in the test on LNCap cells (Compound I-5 present at 2 μM), 8.68; in the test on LNCap cells (Compound I-5 present at 4 μM) it was 9.05; with SW620 cells [3] (Compound I-5 not present) it was 8.09; with SW620 cells [3] (Compound I-5 present at 2 μM), 8.64; with SW620 cells [3] (Compound I-5 present at 4 μM), 9.70. The pEC50 is 8.57 in the test on DMS273 cells [1] (Compound I-7 not present); 8.72 with DMS273 cells [1] (Compound I-7 present at 2 μM); 9.05 in the test on DMS273 cells [1] (Compound I-7 present at 4 μM); 8.48 in the test with OVCAR3 cells (Compound I-7 not present); 8.55 in the test with OVCAR3 cells (Compound I-7 present at 3 μM); 8.77 in the test with OVCAR3 cells (Compound I-7 present at 6 μM). The negative-log EC50 (pEC50) with SK-OV-3 cells (Compound I-7 not present) was 8.01; in the test on SK-OV-3 cells (Compound I-7 present at 2 μM), 8.03; in the test with SK-OV-3 cells (Compound I-7 present at 4 μM) it was 8.32; in the test on SK-OV-3 cells (Compound I-7 present at 8 μM) it was 8.33; in the test on SK-OV-3 cells (Compound I-7 present at 10 μM) it was 8.28. For the same compound, the “pharmacological quiescence (fraction of cells in G0 phase)” value in the test on SW620 cells [4] and in the test on DMS273 cells [2] was “does not result in pharmacological quiescence” throughout.

On to `CC(=O)O[C@@]12CO[C@@H]1C[C@H](O)[C@@]1(C)C(=O)[C@H](O)C3=C(C)[C@@H](OC(=O)[C@H](O)[C@@H](NC(=O)OC(C)(C)C)c4ccccc4)C[C@@](O)([C@@H](OC(=O)c4ccccc4)[C@H]21)C3(C)C` [docetaxel], for which the pEC50 in the test on A549 cells (Compound I-7 not present) is 8.85; with A549 cells (Compound I-7 present at 2 μM), 9.22; in the test with A549 cells (Compound I-7 present at 4 μM) it was 10.00; in the test on HCC827 cells (Compound I-7 not present), 8.74; in the test on HCC827 cells (Compound I-7 present at 2 μM) it was 9.22; with HCC827 cells (Compound I-7 present at 4 μM) it was 10.52. Moreover, the pEC50 with SW620 cells [3] (Compound I-5 not present) is 8.55; with SW620 cells [3] (Compound I-5 present at 2 μM), 9.16; in the test with SW620 cells [3] (Compound I-5 present at 4 μM) it was greater than 10.82; in the test on DMS273 cells [1] (Compound I-7 not present), 9.19; in the test on DMS273 cells [1] (Compound I-7 present at 2 μM), 9.42; with DMS273 cells [1] (Compound I-7 present at 4 μM) it was 9.85. Further, the pEC50 in the test with OVCAR3 cells (Compound I-7 not present) is 9.07; in the test with OVCAR3 cells (Compound I-7 present at 2 μM) it was 9.28; in the test on OVCAR3 cells (Compound I-7 present at 4 μM) it was greater than 10.40; in the test with SK-OV-3 cells (Compound I-7 not present), 8.60; in the test with SK-OV-3 cells (Compound I-7 present at 2 μM) it was 8.82; in the test with SK-OV-3 cells (Compound I-7 present at 4 μM), 9.52.

Take `CC[C@]1(O)C[C@H]2CN(CCc3c([nH]c4ccccc34)[C@@](C(=O)OC)(c3cc4c(cc3OC)N(C=O)[C@H]3[C@@](O)(C(=O)OC)[C@H](OC(C)=O)[C@]5(CC)C=CCN6CC[C@]43[C@@H]65)C2)C1` [vincristine]: the negative-log EC50 (pEC50) was 8.82 in the test on H1975 cells (Compound I-5 not present); 9.07 in the test with H1975 cells (Compound I-5 present at 2 μM); 9.46 in the test on H1975 cells (Compound I-5 present at 4 μM); 8.96 in the test with DMS273 cells [1] (Compound I-5 not present); 9.40 in the test with DMS273 cells [1] (Compound I-5 present at 2 μM); greater than 10.40 in the test with DMS273 cells [1] (Compound I-5 present at 4 μM). Also, the negative-log EC50 (pEC50) in the test on OVCAR3 cells (Compound I-7 not present) is 8.92; in the test on OVCAR3 cells (Compound I-7 present at 2 μM) it was 9.10; with OVCAR3 cells (Compound I-7 present at 4 μM), 10.00; with SK-OV-3 cells (Compound I-7 not present) it was 8.06; in the test with SK-OV-3 cells (Compound I-7 present at 4 μM) it was 8.68; in the test on SK-OV-3 cells (Compound I-7 present at 8 μM), 9.00. The “pharmacological quiescence (fraction of cells in G0 phase)” value in the test on DMS273 cells [2] is “does not result in pharmacological quiescence”.

`C[C@@H](Oc1cc(-n2cnc3ccc(CN4CCN(C)CC4)cc32)sc1C(N)=O)c1ccccc1C(F)(F)F` [GSK461364]: the negative logarithm of the EC50 (pEC50) is 5.92 with A549 cells (Compound I-7 not present); 6.30 with A549 cells (Compound I-7 present at 3 μM); 6.70 in the test with A549 cells (Compound I-7 present at 6 μM); 5.72 with H1975 cells (Compound I-7 not present); 6.01 in the test on H1975 cells (Compound I-7 present at 2 μM); 6.24 with H1975 cells (Compound I-7 present at 4 μM). In addition, the negative logarithm of the EC50 (pEC50) is 6.30 in the test on PANC1 cells (Compound I-7 not present); 6.52 in the test on PANC1 cells (Compound I-7 present at 2 μM); 6.70 with PANC1 cells (Compound I-7 present at 4 μM); 6.37 with DMS273 cells [1] (Compound I-7 not present); 6.62 with DMS273 cells [1] (Compound I-7 present at 2 μM); 6.92 in the test on DMS273 cells [1] (Compound I-7 present at 4 μM).

For `CC[C@@H]1C(=O)N(C)c2cnc(Nc3ccc(C(=O)NC4CCN(C)CC4)cc3OC)nc2N1C1CCCC1` [BI2536], the pEC50 was 8.21 with A549 cells (Compound I-7 not present); 8.39 with A549 cells (Compound I-7 present at 3 μM); 8.77 with A549 cells (Compound I-7 present at 6 μM); 7.33 with H1975 cells (Compound I-7 not present); 7.76 with H1975 cells (Compound I-7 present at 2 μM); greater than 10.40 in the test on H1975 cells (Compound I-7 present at 4 μM). The pEC50 is 8.14 with PANC1 cells (Compound I-7 not present); 8.36 with PANC1 cells (Compound I-7 present at 2 μM); 8.60 with PANC1 cells (Compound I-7 present at 4 μM); 8.21 in the test with DMS273 cells [1] (Compound I-7 not present); 8.39 with DMS273 cells [1] (Compound I-7 present at 2 μM); 8.77 in the test with DMS273 cells [1] (Compound I-7 present at 4 μM).
